Results published in PubChem BioAssay AID179 (DTP/NCI, 2004).
pEC50, pIC50: −log10 of the molar value. Active and inactive are the calls of the source.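 Rule for the calls: active = compounds giving half or more protection of infected cells from virus-caused growth loss, again on retest; inactive = the rest.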

Tested on: CEM cells HIV-1 protection, formazan growth assay
Assay: NCI AIDS Antiviral Assay
Details: for pIC50: measured here: growth of uninfected CEM cells
Summary of the method: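 CEM (human) cells, HIV-1 infected vs uninfected, 5-point dosing, formazan growth read-out. Retest threshold 50% protection.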

Row | Structure (SMILES) | pEC50 | pIC50 | outcome
1 | CCOC(=O)C[P+](c1cccc(F)c1)(c1cccc(F)c1)c1cccc(F)c1 | < 3.70 | 3.78 | 
2 | CC1=NN(c2ccccc2)C(=O)C1N=Nc1ccc(S(=O)(=O)Nc2ccccn2)cc1 (stereo not given) |  |  | inactive
3 | COC(=O)CC(C)(NS(=O)c1ccc(C)cc1)c1ccccc1 (stereo not given) | < 3.70 | 3.92 | 
4 | CC(=O)CCCCn1c(=O)c2c(ncn2C)n(C)c1=O | < 3.05 | < 3.05 | 
5 | NC(CCSCCSCCC(N)C(=O)O)C(=O)O (stereo not given) | < 5.47 | < 5.47 | 
6 | CCOP(=O)(OCC)c1cc(NC(=O)c2cc(NC(=O)c3cc(NC(=O)Nc4cc(C(=O)Nc5cc(C(=O)Nc6cc(P(=O)(OCC)OCC)c7cccc(P(=O)(OCC)OCC)c7c6)n(C)c5)n(C)c4)cn3C)cn2C)cc2c(P(=O)(OCC)OCC)cccc12 | < 3.70 | < 3.70 | 
7 | CN(CCN1C(=O)c2cccc3cc([N+](=O)[O-])cc(c23)C1=O)CCN1C(=O)c2cccc3cc([N+](=O)[O-])cc(c23)C1=O | < 5.04 |  | 
8 | Nc1nc2c(c(-c3cccc(Cl)c3)n1)COC/C2=C\c1cccc(Cl)c1 | < 3.70 | < 3.70 | 
9 | COc1cccc(C(O)C(CN2CCCCC2)CN2CCCCC2)c1 (stereo not given) | < 3.70 | < 4.00 | 
10 | O=C(CC1(O)C(=O)Nc2ccc([N+](=O)[O-])cc21)c1ccc2ccccc2c1 (stereo not given) | < 4.00 | < 4.00 | 
11 | Cn1c(=O)c2nncnc2n(C)c1=O | < 3.70 | < 3.70 | 
12 | CCOP(=S)(N/N=C\C(C)(C)C1CCCCC1)OCC | < 3.70 | 4.51 | 
13 | CC1(C)Oc2ccc3c(=O)cc(-c4cccs4)oc3c2C1C(=O)O (stereo not given) | < 3.70 | < 3.70 | 
14 | O=C1CC2C3C1N(c1ccc(Cl)cc1)C1(Nc4ccc(Cl)cc4)C(=O)CC(C31)N2c1ccc(Cl)cc1 (stereo not given) | < 3.70 | 4.47 | 
15 | Cc1ccc(Cc2n[nH]c(=O)n2-c2ccccc2)cc1 |  |  | inactive
16 | CS(=O)(=O)NC1C(=O)c2ccccc2OC1c1ccccc1 (stereo not given) | < 3.70 | < 3.70 | 
17 | CCOC(=O)C(C)(C)Oc1ccc2c(-c3ccc(Cl)cc3)c(-c3ccc(Cl)cc3)c(=O)oc2c1 | < 5.12 | < 5.12 | 
18 | Brc1ccc2nncc(N3CC3)c2c1 |  |  | inactive
19 | CCCCCCCCCCC(=O)CCCCCCC(=O)O |  |  | inactive
20 | Oc1c2cc(Br)cc1CCc1cc(Br)cc(c1O)CC2 | < 3.70 | 4.59 | 
21 | O=C1CCCc2cc3c(cc21)CCC3C(=O)O (stereo not given) |  |  | inactive

Row | Structure (SMILES) | pEC50 | pIC50 | outcome
22 | CN(C)CCC(=O)N1CCc2c([nH]c3ccccc23)C1c1cccnc1 (stereo not given) | < 3.43 | < 3.43 | 
23 | CC1(CO)COc2ccccc2C1=O (stereo not given) | < 3.70 | < 3.70 | 
24 | Clc1ccc(N=c2ccc3ccccc3[oH+]2)cc1.Clc1ccc(N=c2ccc3ccccc3[oH+]2)cc1.[Ni] |  |  | inactive
25 | CC(=O)C(N=Nc1ccc(S(=O)(=O)Nc2ccccn2)cc1)C(=O)Nc1ccccc1C (stereo not given) | < 3.70 | 5.34 | 
26 | CCOP(=O)(OCC)/C(C#N)=C/c1cccc(F)c1 | < 3.48 | < 3.48 | 
27 | CN1N(c2ccccc2)C(=O)C2=NC=C(C(=O)c3ccccc3)C(=N)C21C (stereo not given) | < 3.70 | < 3.70 | 
28 | CCN(CC)c1ccc2cc3ccc(=[N+](CC)CC)cc-3oc2c1 | < 3.30 | 6.80 | 
29 | CCc1ccccc1-n1c2nc(=O)n(C)c(=O)c-2nc2ccccc21 |  |  | inactive
30 | c1ccc2c(c1)CCN(NCCN1CCCC1)C2 |  |  | inactive
31 | O=C(CSS(=O)(=O)O)c1ccccc1 | < 3.70 | < 3.70 | 
32 | O=C(O)C1(CC(CCCN2CCCCC2)c2ccccc2)CCCC1 (stereo not given) | < 3.70 | 3.72 | 
33 | CCC(C)C(C1=C(O)c2ccccc2C(=O)C1=O)C1=C(O)c2ccccc2C(=O)C1=O (stereo not given) | < 3.70 | 4.06 | 
34 | COC(=O)c1ccc(C(=O)OC)c2nc3cc(C)ccc3nc12 | < 3.66 | < 3.66 | 
35 | Nc1ccc(/C=C/c2ccnc3ccccc23)cc1 | 4.71 | < 3.70 | 
36 | COc1ccc(/C=C2\C(=O)N(NC(C)=O)c3ccccc32)cc1 | < 3.51 | 4.28 | 
37 | COCCOCCOCCOc1ccc(C(C#N)N(CCc2ccccc2)C(=O)c2cc(C(=O)N(CCc3ccccc3)C(C#N)c3ccc(OCCOCCOCCOC)cc3)cc(C(=O)N(CCc3ccccc3)C(C#N)c3ccc(OCCOCCOCCOC)cc3)c2)cc1 (stereo not given) | < 3.70 | < 3.70 | 
38 | O=C1C2c3[nH]c4ccccc4c3C3CCCCC3C2C(=O)N1c1ccccc1 (stereo not given) |  |  | inactive
39 | CC1(C)OC2C(COCc3ccccc3)=CC(n3ccc(=O)[nH]c3=O)C2O1 (stereo not given) | < 3.70 | < 3.70 | 
40 | O=c1c(O)c(-c2ccc(O)cc2O)oc2cc(O)cc(O)c12 |  |  | inactive
41 | Cc1ccccc1S(=O)(=O)Nn1cnc2ccc(S(=O)(=O)Nc3ccc(Cl)cc3)cc2c1=O |  |  | inactive
42 | OCn1nc(Cl)c2cc(Cl)ccc21 | < 3.70 | 4.25 | 

Row | Structure (SMILES) | pEC50 | pIC50 | outcome
43 | CC(=O)O[C@H]1CC(C)(C)C(=C=C/C(C)=C/C=C/C=C/C=C(C)/C=C2C=C(/C=C/[C@@]34O[C@]3(C)C[C@@H](O)CC4(C)C)C(=O)O/2)[C@](C)(O)C1 | < 3.82 | 5.16 | 
44 | CC1(C)OCC(C2OC3OC(C)(C)OC3C2c2ccccc2)O1 (stereo not given) | < 3.70 | < 3.70 | 
45 | O=C1C(c2ccccc2)=C(c2ccccc2)C(c2ccccc2)/C1=C1\C(=O)C(c2ccccc2)=C(c2ccccc2)C1c1ccccc1 (stereo not given) |  |  | inactive
46 | COc1ccc2c(c1OC)C[N+]1(C)CCc3cc4c(cc3C1C2)OCO4 (stereo not given) | < 3.80 | < 3.80 | 
47 | CCNC(=O)C1CCCN1C(=O)C(CCCN=C(N)N)NC(=O)C(CC(C)C)NC(=O)C(Cc1c[nH]c2ccccc12)NC(=O)C(Cc1ccc(O)cc1)NC(=O)C(CO)NC(=O)C(Cc1c[nH]c2ccccc12)NC(=O)C(Cc1cnc[nH]1)NC(=O)C1CCC(=O)N1 (stereo not given) | < 3.75 | < 3.75 | 
48 | Clc1c(C(Cl)(Cl)Cl)nsc1N1CCCCC1 | < 3.70 | 4.14 | 
49 | CCOC(=O)C(Sc1ccccc1)c1c(OC)cc(=O)oc1/C=[N+](/[O-])c1ccc(N(C)C)cc1 (stereo not given) |  |  | inactive
50 | Cc1ccnc2sc3ccccc3c(=O)c12 | < 3.70 | 4.43 | 
51 | CCOC(=O)/C(=C\c1ccc([N+](=O)[O-])cc1)C(C)=O | < 3.59 | 4.19 | 
52 | N#C/C(=C\c1ccccc1F)C(=O)O | < 3.17 | 3.52 | 
53 | CCOC(=O)c1ccc(Nc2nc3cc(C(F)(F)F)ccc3nc2C(=O)OCC)cc1 | < 3.70 | 4.08 | 
54 | O=C(O)CCCCCCCCCCCI | 4.56 | 3.96 | 
55 | CCN1C(c2ccccc2)=CC(c2ccccc2)(C(Cl)(Cl)Cl)C=C1c1ccccc1 | < 3.70 | 5.75 | 
56 | CC(O)C1(CNc2cc(Cl)nc(N)n2)CCC1 (stereo not given) | < 3.70 | 3.74 | 
57 | Nc1nc2c(ncn2C2CC(CO)C(CO)C2)c(=O)[nH]1 (stereo not given) | < 3.65 | < 3.65 | 
58 | CCOC(=O)C1=c2[nH]c3cccc4cccc(c43)n2C(=O)CC1c1ccccc1 (stereo not given) | < 4.00 | 4.12 | 
59 | O=C(/C(=C/c1ccc([N+](=O)[O-])cc1)c1ccccc1)c1ccccc1 | < 5.08 | 5.28 | 
60 | Cc1ccc(C=C(C(=O)O)C(=O)O)cc1 | < 2.92 | < 2.92 | 
61 | CC(=O)Oc1ccc(-c2oc3c([C@H]4C=C(C)CC(c5ccc(OC(C)=O)cc5OC(C)=O)[C@@H]4C(=O)c4ccc(OC(C)=O)c(CC=C(C)C)c4OC(C)=O)c(OC(C)=O)cc(O)c3c(=O)c2CC=C(C)C)c(OC(C)=O)c1 (stereo not given in full) | < 4.93 | 5.13 | 
62 | Cc1ccc(S(=O)(=O)c2[nH]cc(-c3c[nH]c(S(=O)(=O)c4ccc(C)cc4)c3C3CCCCC3)c2C2CCCCC2)cc1 |  |  | inactive
63 | CC1(C(=O)O)OC12CCCCC2 (stereo not given) | < 3.70 | < 3.70 | 

Row | Structure (SMILES) | pEC50 | pIC50 | outcome
64 | CCc1ccc(N2C(=O)C(CC(=O)O)SC23C(=O)N(Cc2ccccc2)c2ccccc23)cc1 (stereo not given) | < 3.28 | 4.54 | 
65 | COc1ccc(/C(Nc2ccccc2)=C(\CCl)c2ccccc2)cc1OC | < 3.70 | 4.50 | 
66 | COc1cc(\C=N/N=C/C=C/c2ccccc2)cc(OC)c1OC |  |  | inactive
67 | CCOC(=O)CC1(Cc2ccc(OCc3ccccc3)cc2)C(=O)OC(c2ccccc2)N1C(=O)c1ccccc1 (stereo not given) | < 3.70 | < 3.70 | 
68 | COc1ccc(/C(=C\c2cc(OC)c(OC)cc2[N+](=O)[O-])C(=O)O)cc1 |  |  | inactive
69 | O=C1NC(N2CCCCC2)=N/C1=C\c1ccccc1O | < 3.70 | 3.76 | 
70 | Cc1noc(NS(=O)(=O)c2ccc(NC(=O)c3ccc4nc5ccccc5c(Nc5ccc(S(=O)(=O)Nc6onc(C)c6C)cc5)c4c3)cc2)c1C | 4.20 | 3.96 | 
71 | COc1ccc(C2=C(c3ccccc3)C(=O)C(c3ccccc3)=C2c2ccccc2)cc1 |  |  | inactive
72 | Cc1noc2c1NC(=O)OC(C)(C)C2 | < 3.35 | < 3.35 | 
73 | O=C(O)CNC(=O)c1ccccc1SC(=O)CCCC[n+]1ccccc1 | < 3.70 | < 3.70 | 
74 | O=C1C=CC=C/C1=C1\N=C(c2ccccc2OCC(=O)c2ccc(Br)cc2)SS1 | < 4.30 | 4.71 | 
75 | Cc1ccc(C)c(NC(=O)C(=O)C2C(=O)N(c3ccccc3)N=C2N)c1 (stereo not given) | < 3.15 | 3.20 | 
76 | Cc1cc2c(cc1C)NS(=O)(=O)N2 | < 3.35 | 5.01 | 
77 | O=C1c2ccccc2C(=O)c2c(NCCNC(=O)C3CCCN3)ccc(NCCNC(=O)C3CCCN3)c21 (stereo not given) | < 3.82 | 4.65 | 
78 | CC1CC(C)(C)N=C(CCC[N+](=O)[O-])O1 (stereo not given) | < 3.70 | < 3.70 | 
79 | CCOC(=O)NC(Nc1ccc(S(=O)(=O)Nc2nc(C)cc(C)n2)cc1)(C(=O)OCC)C(F)(F)F (stereo not given) | < 3.70 | < 3.70 | 
80 | CC(C)Nc1n[nH]c(=O)n1C(C)C | < 3.70 | < 3.70 | 
81 | COc1cccc2cc(C)c(C(=O)c3ccccc3)nc12 | < 4.19 | < 4.19 | 
82 | COC(=O)C(=O)C(/C=N/C(=S)NC1CCCCC1)=C(\O)c1ccc(F)cc1 | < 3.70 | < 3.70 | 
83 | O=c1c2cc(Br)ccc2ncn1COCc1ccccc1 | < 3.70 | 4.05 | 
84 | CC(=O)Oc1ccccc1[C@H]1CC(=O)C[C@H](c2ccccc2OC(C)=O)C12C(=O)c1ccccc1C2=O | < 3.70 | 4.33 | 
